{
  "source": "patent US20130251633A1",
  "about": "“SYSTEMS, METHODS, AND DEVICES FOR ULTRASONIC ASSESSMENT OF CANCER AND RESPONSE TO THERAPY” (The Trustees of Columbia University in the City of New York, priority 2010, published 2013)",
  "format_in_all_cases": "in vivo, NCR nude mice",
  "key": {"NGP tumors [1]": {"system": "NGP tumors", "assay": "CEUS perfusion imaging (relative microbubble perfusion), NGP tumors", "details": "for increase in mean rmp: BV-treated NGP tumors", "protocol": "(§1) The identity of the neuroblastoma cell lines NGP and SK-NEP-1 were verified by STR profiling. The cell lines were stably transfected with FUW-Luciferase plasmid and were selected and maintained in 1 mg/ml neomycin. 1×10^6 cells were injected intrarenally into 4-6 week old NCR female nude mice. The resulting xenografts were monitored for growth using bioluminescence. At a threshold corresponding to 1-2 g, tumors were randomized to control or treatment groups (cohort size 5-8 mice per modality and treatment groups). BV (0.5 mg) was administered immediately after imaging on days 0 and 3. Animals were killed by CO2 inhalation at indicated time points (at day 5 after serial imaging studies, and at days 0, 1, 3, and 5 for control and lectin perfusion analyses). At euthanasia, mice were injected with fluorescein-labeled Lycopersicon esculentum lectin (100 μg/100 μl PBS). Vasculature was fixed by infusing 1% paraformaldehyde. 40-μm sections were cut using a vibratome, and digital images subjected to computer-assisted quantitative analysis of tumor vessel architecture.\nSize-selected microbubbles described above were used for perfusion and molecular imaging. Lipid-coated, perfluorobutane-filled microbubbles were produced by mechanical agitation. For targeting, a maleimide group was included on the distal end of the polyethylene glycol group on the lipopolymer used to coat the microbubbles. Residual lipid was removed and 4.5-μm median diameter microbubbles were isolated by centrifugation. Targeted microbubbles were then conjugated to cysteine-tagged RGD (target) or RAD (control) peptides and washed again to remove residual peptide. RGD conjugation was confirmed by HPLC and MALDI-TOF. Ultrasound imaging was performed using a small-animal ultrasound scanner with a 30-MHz transducer.\nMice were anesthetized and placed on a physiological monitoring platform, and their tail veins were catheterized for injections using a 27-gauge, ½-inch butterfly catheter. The transducer was positioned at the tumor midsection, and 2-D ultrasound images were acquired using a field of view of 17×17 mm. A 50-μL bolus (2.5×10^7 microbubbles) followed by a 15-μL saline flush were injected while imaging at the maximum frame rate for respiratory gating (˜11 frames/second) and 100% power. Maximum intensity persistence (MIP) images were acquired using non-targeted RAD-microbubbles. Contrast enhancement was detected using background subtraction from reference videos acquired before the microbubble injection. […] Relative microbubble perfusion (rmp) was defined as the maximum signal enhancement and determined by regression of a monoexponential function to the time-intensity curve during microbubble uptake. […]"}, "NGP xenografts": {"system": "NGP xenografts", "assay": "Tumor 2-D cross-sectional area by ultrasound, NGP xenografts", "details": "NGP tumors, BV vs. control, 5 days", "protocol": "as §1, with “BV (0.5 mg) was administered immediately after imaging on days 0 and 3.” left out"}, "NGP tumors [2]": {"system": "NGP tumors", "assay": "Fluorescein-labeled lectin perfusion analysis of tumor vasculature, NGP tumors", "details": "BV-treated NGP tumors", "protocol": "as §1, with “At euthanasia, mice were injected with fluorescein-labeled Lycopersicon esculentum lectin (100 μg/100 μl PBS). Vasculature was fixed by infusing 1% paraformaldehyde.” left out\nQuantified changes in lectin perfusion studies of tumor vasculature were consistent with changes detected by CEUS. […]\nComputer-assisted image analysis was used to examine changes in specific vessel features. If vascular area is calculated from total pixels, large-diameter vessels contributed disproportionately to MVD as compared to fine capillaries. To more closely estimate numbers of vessels, total length can be calculated by skeletonizing images and then scoring these by computer. […]"}, "SK-NEP-1 tumors [3]": {"system": "SK-NEP-1 tumors", "assay": "Ultrasound molecular imaging with RGD-microbubbles (relative targeted microbubble adhesion, αvβ3 integrin), SK-NEP-1 tumors", "protocol": "as §1, with “BV (0.5 mg) was administered immediately after imaging on days 0 and 3.” left out"}, "SK-NEP-1 tumors [4]": {"system": "SK-NEP-1 tumors", "assay": "CEUS perfusion imaging (relative microbubble perfusion), SK-NEP-1 tumors", "details": "SK-NEP-1 cohorts, days 0 to 5, linear mixed-effects model", "protocol": "as §1, with “At euthanasia, mice were injected with fluorescein-labeled Lycopersicon esculentum lectin (100 μg/100 μl PBS). Vasculature was fixed by infusing 1% paraformaldehyde.” left out, “architecture. […]” for “architecture.”\nMice were anesthetized and placed on a physiological monitoring platform, and their tail veins were catheterized for injections using a 27-gauge, ½-inch butterfly catheter. […] Contrast enhancement was detected using background subtraction from reference videos acquired before the microbubble injection. […] Relative microbubble perfusion (rmp) was defined as the maximum signal enhancement and determined by regression of a monoexponential function to the time-intensity curve during microbubble uptake. […]"}, "SK-NEP-1 tumors [5]": {"system": "SK-NEP-1 tumors", "assay": "Fluorescein-labeled lectin perfusion analysis of tumor vasculature, SK-NEP-1 tumors", "protocol": "as §1, with “BV (0.5 mg) was administered immediately after imaging on days 0 and 3.” left out\nAfter binarization of the images, microvessel density (MVD) was estimated by the total number of white pixels per field. The results shown in FIGS. 10A-10B are as the mean pixel count per image +SD.\nComputer-assisted image analysis was used to examine changes in specific vessel features. […] To more closely estimate numbers of vessels, total length can be calculated by skeletonizing images and then scoring these by computer. […] New vascular branches can form a dynamic and relatively VEGF-dependent element in angiogenic networks."}, "SK-NEP-1 xenografts": {"system": "SK-NEP-1 xenografts", "assay": "Tumor 2-D cross-sectional area by ultrasound, SK-NEP-1 xenografts", "protocol": "(§2) To evaluate vascular response (blood volume, perfusion, and molecular expression), two human cancer cell lines (SK-NEP and NGP) were implanted in nude mice and allowed to develop for five weeks. High-frequency ultrasound imaging of the tumors was performed at 40 MHz using a Visualsonics Vevo 770 during bolus tail-vein injections of size-selected microbubble suspensions. […] The bolus was […] and the concentration was 5×10^8 microbubbles/mL. The change in intensity of the ultrasound signal was used to determine the relative blood volume. Targeted microbubbles bearing cyclic RGD-peptides (or cyclic RAD-peptides for the control microbubbles) were used to measure the level of active angiogenesis. The mice were imaged at 0, 1, 3, and 5 days. Immediately after the imaging sessions on days 0 and 3, 0.2 cc of BV (2.5 mg/mL) was administered to the mice. After day 5, the mice were euthanized, and their tumors excised for ex vivo analysis.\n(§3) The identity of the neuroblastoma cell lines NGP and SK-NEP-1 were verified by STR profiling. […] The resulting xenografts were monitored for growth using bioluminescence. […] 40-μm sections were cut using a vibratome, and digital images subjected to computer-assisted quantitative analysis of tumor vessel architecture.\nXenografts formed in the kidney of NCR nude mice with the human Ewing family tumor cell line SK-NEP-1 are highly sensitive to VEGF blockade therapy, while human neuroblastoma NGP cell lines are much less responsive to VEGF blockade therapy. The intrarenally implanted xenograft tumors were monitored for growth and randomly assigned to biweekly injections of anti-VEGF antibody BV or vehicle. […] To confirm the characterization of responsiveness, 2-D tumor area was measured by ultrasonography, the results of which are shown in FIG. 11.\nThe tumor 2-D cross-sectional area was determined from the ultrasound images using Visualsonics software. Area measurements of the tumor were calculated from the ultrasound images using a ROI that encompassed the hypoechoic region of the kidney (tumor tissue). […]"}, "NGP tumors [6]": {"system": "NGP tumors", "assay": "Ultrasound molecular imaging with RGD-microbubbles (relative targeted microbubble adhesion, αvβ3 integrin), NGP tumors", "details": "exponential decay model, days 0-5", "protocol": "as §2, with “The mice were imaged at 0, 1, 3, and 5 days. Immediately after the imaging sessions on days 0 and 3, 0.2 cc of BV (2.5 mg/mL) was administered to the mice. After day 5, the mice were euthanized, and their tumors excised for ex vivo analysis.” left out\nas §3, with “architecture. […]” for “architecture.”\nFor molecular ultrasound imaging, a series of lower frequency pulses was applied to destroy microbubbles in the field of view 10 minutes after microbubble injection. […] The relative targeted microbubble adhesion (rtma) was measured as the difference in the linearized grayscale pixel intensities within the ROI for targeted RGD-microbubbles, minus that for RAD-microbubbles. […]"}},
  "data": [
    {"substance": "bevacizumab [BV]", "values": [
      {"measurement": "increase in mean rmp", "setting": "NGP tumors [1]; by day 1", "result": "38±21", "unit": "%"},
      {"measurement": "increase in mean rmp", "setting": "NGP tumors [1]; by day 3", "result": "57±48", "unit": "%"},
      {"measurement": "increase in mean rmp", "setting": "NGP tumors [1]; by day 5", "result": "105±41", "unit": "%"},
      {"measurement": "slopes of the linear regression of rmp, BV-treated vs control", "setting": "NGP tumors [1]; NGP cohorts, days 0 to 5, linear mixed-effects model", "result": "no difference"},
      {"measurement": "tumor growth", "setting": "NGP xenografts", "result": "unaffected"},
      {"measurement": "microvessel density (MVD) compared to day 0 controls", "setting": "NGP tumors [2]", "result": "did not change"},
      {"measurement": "reduction of the difference in image intensity (before/after destruction pulse)", "setting": "SK-NEP-1 tumors [3]; BV-responsive tumors, RGD microbubbles, after 3 days following treatment", "result": "> 95", "unit": "%"},
      {"measurement": "decrease in mean rtma", "setting": "SK-NEP-1 tumors [3]; BV-treated SK-NEP-1, by day 5", "result": "99±5", "unit": "%"},
      {"measurement": "difference in rtma decay rates, BV-treated vs control", "setting": "SK-NEP-1 tumors [3]; SK-NEP-1, exponential decay model, days 0-5", "result": "statistically different"},
      {"measurement": "αvβ3 integrin binding of RGD-bearing microbubbles in the tumor region", "setting": "SK-NEP-1 tumors [3]; treated SK-NEP mice, three days following BV administration", "result": "significant drop"},
      {"measurement": "slopes of the linear regression of rmp, BV-treated vs control", "setting": "SK-NEP-1 tumors [4]", "result": "statistically different"},
      {"measurement": "decrease in microvessel density (MVD) compared to day 0 controls", "setting": "SK-NEP-1 tumors [5]; BV-treated SK-NEP-1 tumors, day 1", "result": 66, "unit": "%"},
      {"measurement": "total vessel length", "setting": "SK-NEP-1 tumors [5]; SK-NEP-1, days 1, 3, 5", "result": "significantly decreased"},
      {"measurement": "total vascular branch number", "setting": "SK-NEP-1 tumors [5]; SK-NEP-1, days 3 and 5", "result": "significantly decreased"},
      {"measurement": "changes in tumor size", "setting": "SK-NEP-1 xenografts; SK-NEP tumor-bearing mice, 0.2 cc BV (2.5 mg/mL) on days 0 and 3", "result": "no significant changes"},
      {"measurement": "change in tumor 2-D cross-sectional area (ultrasound)", "setting": "SK-NEP-1 xenografts; SK-NEP-1 mice, BV 0.5 mg on days 0 and 3, over the 5 day period", "result": "−5", "unit": "%"},
      {"measurement": "tumor growth in comparison to control", "setting": "SK-NEP-1 xenografts; SK-NEP-1 xenografts, days 3 and 5", "result": "significantly arrested tumor growth"},
      {"measurement": "difference in rtma decay rates, BV-treated vs control", "setting": "NGP tumors [6]", "result": "no difference was observed"}
    ]}
  ]
}
